The subject of one series is soybean William82. As to the kind of experiment: Spray testing of transgenic soybean T1 seedlings. To be noted: 4.48 kg/ha foliage spray, 10 days after spraying. Format: in vivo. The source says:
1. Vector construction: the pQY2330 vector (see FIG. 8-1) was used as the overexpression vector, containing a Bar resistance gene that can be used as a selection marker for glufosinate. The AAD-like gene, QYD42, SEQ ID NO. 83, was linked to the Xho I restriction site by seamless cloning to construct the transgenic expression vector pQY2330, of which the expression cassette consisted of a double CaMV35S promoter, the AAD-like gene QYD42 and a […] Nos terminator.
2. Genetic transformation of soybeans: Soybean transformation was carried out using the Agrobacterium-mediated cotyledon nodes transformation method (Pareddy D, Chennareddy S, Anthony G, et al. Improved soybean transformation for efficient and high throughput transgenic production[J]. Transgenic Research, 2020, 29(968)). A monoclone of the Agrobacterium (EHA105) comprising the overexpression vector pQY2330 was inoculated into 5 ml YEP liquid medium (containing 25 mg/L Rifampicin and 50 mg/L Kanamycin) and shaking-cultured at 220 rmp/min, 28° C. for 8 hours. And then 0.2-0.3 ml bacteria solution was transferred to 200 ml YEP liquid medium (containing 25 mg/L Rifampicin and 50 mg/L Kanamycin) and shaking-cultured at 220 rmp/min, 28° C. overnight until the bacteria reached the exponential growth stage, then centrifuged at 4000 rmp/min for 20 min to collect the cells into a 50 ml centrifuge tube (sterilized). […]

A further series deals with T1, AAD-12 (Delftia acidovorans, UniProt P83309).
T1 construct: made in house; host or cells: E. coli BL21(DE3)
Briefly: Degradation activities of AAD-12 on phenoxy acetic acid herbicides by spectrophotometry (A510). Format: biochemical, Comamonas acidovorans. The procedure:
As reported in literature (Fukomori and Flausinger, Purification and characterization of 2,4-dichlorophenoxyacetate/alpha-ketoglutarate dioxygenase Journal of Biological Chemistry (1993) 268(32): 24311-24317), the constructed expression vector pET15b-AAD12 was transformed into E. coli BL21(DE3) and induced by IPTG for expression. After cells were collected and lysed, Ni-NTA column was used for purification and the purity of the protein was analyzed by SDS-PAGE.
Since phenolic products were produced by AAD-12-substrate catalytic reaction, 4-aminoantipyrine and potassium ferricyanide could be used to develop color with the products in an alkaline environment to generate red products with absorption at 510 nm, and the relevant parameters were directly read with a microplate reader.

[1] abbreviates: AAD-12 enzyme with substrate, chromogenic detection at 510 nm.

T1 sequence (P83309 2-292, added parts left off): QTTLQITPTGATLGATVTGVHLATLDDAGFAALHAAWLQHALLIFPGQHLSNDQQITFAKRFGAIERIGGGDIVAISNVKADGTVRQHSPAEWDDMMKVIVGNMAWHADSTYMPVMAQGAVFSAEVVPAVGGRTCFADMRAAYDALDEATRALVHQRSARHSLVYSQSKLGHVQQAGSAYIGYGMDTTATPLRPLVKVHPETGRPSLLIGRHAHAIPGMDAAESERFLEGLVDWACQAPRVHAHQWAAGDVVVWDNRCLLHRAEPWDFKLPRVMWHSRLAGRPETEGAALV

In the case of `O=C(O)COc1ccc(Cl)cc1Cl` [2,4-D, (2,4-dichlorophenoxy)acetic acid, reference compound], the “Effect of the herbicide spray on non-transgenic soybean William82” value in the series with soybean William82 was “all non-transgenic recipient parents died and die”. Further, the “Degradation activity of expressed AAD-12 enzyme on the substrate” value at AAD-12 is reported as “degradation activities”. Moreover, at AAD-12 (setting [1]), the “A510 of reaction group, Reaction 1” value was found to be 0.2865; the “A510 of reaction group, Reaction 2” value is reported as 0.2766; the “A510 of reaction group, Reaction 3” value is 0.2652. Also, the “Increased A510” value at AAD-12 (reaction group versus blank group) is reported as “+0.130”.

For the origin of these results see US20240043859A1, “HERBICIDE-RESISTANT PROTEIN, AND GENE AND USE THEREOF” (QINGDAO KINGAGROOT CHEMICAL COMPOUND CO., LTD., priority 2020, published 2024).
